In patent publication US20260115203A1 (LABORATORIOS LITAPHAR, S.L., priority 2023, published 2026):
“Also recorded” adds a separate entry of the source. Where two headings read alike, the source gives them in different places.

Assays:
[1] = biological target: T1, human progesterone receptor (Homo sapiens, UniProt P06401); conditions: cited from earlier work
T1 sequence (P06401 1-933): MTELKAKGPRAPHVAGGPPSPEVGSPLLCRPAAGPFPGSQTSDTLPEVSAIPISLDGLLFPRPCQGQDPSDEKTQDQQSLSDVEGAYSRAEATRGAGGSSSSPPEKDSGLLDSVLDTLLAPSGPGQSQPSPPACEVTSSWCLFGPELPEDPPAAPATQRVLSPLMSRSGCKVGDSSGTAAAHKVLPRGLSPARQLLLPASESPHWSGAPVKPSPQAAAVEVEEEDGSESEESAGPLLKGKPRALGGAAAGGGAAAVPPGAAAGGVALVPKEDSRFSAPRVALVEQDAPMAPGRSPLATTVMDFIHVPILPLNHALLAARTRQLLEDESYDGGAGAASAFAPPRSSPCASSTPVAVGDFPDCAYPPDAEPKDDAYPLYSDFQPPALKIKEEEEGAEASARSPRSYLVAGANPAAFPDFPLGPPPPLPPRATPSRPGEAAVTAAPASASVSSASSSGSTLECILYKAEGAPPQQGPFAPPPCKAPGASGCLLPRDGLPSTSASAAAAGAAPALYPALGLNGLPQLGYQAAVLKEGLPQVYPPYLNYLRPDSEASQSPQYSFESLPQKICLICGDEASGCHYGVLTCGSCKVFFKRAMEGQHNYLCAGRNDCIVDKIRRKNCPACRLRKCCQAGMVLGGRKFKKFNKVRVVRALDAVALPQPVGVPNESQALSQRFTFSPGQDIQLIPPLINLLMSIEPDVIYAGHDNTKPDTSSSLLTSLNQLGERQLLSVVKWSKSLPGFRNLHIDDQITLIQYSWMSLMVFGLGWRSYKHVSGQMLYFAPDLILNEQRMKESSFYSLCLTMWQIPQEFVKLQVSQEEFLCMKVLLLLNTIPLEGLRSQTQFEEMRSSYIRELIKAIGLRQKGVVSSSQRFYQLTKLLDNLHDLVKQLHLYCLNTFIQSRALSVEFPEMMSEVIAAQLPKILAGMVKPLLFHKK

[2] = biological target: T2, human glucocorticoid receptor (Homo sapiens, UniProt P04150); conditions: cited from earlier work
T2 sequence (P04150 1-777): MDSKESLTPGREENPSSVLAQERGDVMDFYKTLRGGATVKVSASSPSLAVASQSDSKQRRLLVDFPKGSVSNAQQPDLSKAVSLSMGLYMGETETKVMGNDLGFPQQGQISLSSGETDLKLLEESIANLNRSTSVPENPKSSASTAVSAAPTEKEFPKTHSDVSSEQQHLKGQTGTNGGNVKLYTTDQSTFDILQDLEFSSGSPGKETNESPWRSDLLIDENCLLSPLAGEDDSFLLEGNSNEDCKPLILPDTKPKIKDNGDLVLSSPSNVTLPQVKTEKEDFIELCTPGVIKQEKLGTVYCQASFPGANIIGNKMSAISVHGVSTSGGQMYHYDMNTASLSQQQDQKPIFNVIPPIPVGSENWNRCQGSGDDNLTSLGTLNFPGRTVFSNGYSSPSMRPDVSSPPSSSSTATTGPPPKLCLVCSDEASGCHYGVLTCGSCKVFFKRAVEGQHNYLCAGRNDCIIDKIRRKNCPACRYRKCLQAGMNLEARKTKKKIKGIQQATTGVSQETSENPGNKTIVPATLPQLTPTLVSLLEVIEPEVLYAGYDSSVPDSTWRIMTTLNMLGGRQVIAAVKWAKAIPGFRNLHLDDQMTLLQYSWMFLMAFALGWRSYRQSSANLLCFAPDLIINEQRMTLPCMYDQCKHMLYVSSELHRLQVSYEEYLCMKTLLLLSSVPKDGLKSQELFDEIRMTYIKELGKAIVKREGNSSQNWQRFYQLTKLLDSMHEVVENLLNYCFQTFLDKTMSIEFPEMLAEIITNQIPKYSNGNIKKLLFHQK

[3] = compared with parent drug mifepristone; cited from earlier work
[4] = test system: endometriosis in reproductive-age women; test: Randomized, double-blind clinical trial of mifepristone 2.5 mg and 5 mg vs. placebo (EudraCT 2018-002367-26), endometriosis associated pain by VAS; format: in vivo
Text: Both mifepristone products were formulated as tablets with the following respective compositions: […]
The planned number of subjects to be included in the whole clinical trial was 490.
The principal inclusion criteria were: • [1] Premenopausal female, between 18 and 45 years of age inclusive, at the time of signing consent • [2] Patients with Endometriosis Associated Pelvic Pain (EAPP: i.e. any type of pelvic pain associated with endometriosis: nonmenstrual pelvic pain, dysmenorrhea, dyschezia and dyspareunia) as measured by Visual Analogue Scale (VAS)≥40 mm at least once in the previous 4 weeks from baseline visit • [3] Patients with a history of EAPP for at least the past 6 months prior to the initial screening visit • [4] Endometriosis diagnosed by laparoscopy and/or surgery in the past 10 years or less or diagnosed by MRI or transvaginal ultrasound in the past 5 years • [5] Patients with a history of regular menstrual cycles (21-35 days) while not being on any pharmacological treatment that could alter the menstrual cycle (e.g. oral contraceptive pills) • [6] Patients who agree to use only ibuprofen 400 mg as rescue medication up to a total daily dose of not more than 2400 mg • [7] Patients willing and able (e.g. mental and physical condition) to participate in all aspects of the study as evidenced by providing signed written informed consent • [8] Patient agrees to use double barrier contraception birth control methods (e.g. condom with spermicide) during the entire length of participation in the study. […] History of hypersensitivity or intolerance to the active substance or any of the excipients of the study medication • [2] Subject is pregnant or breast-feeding or is planning a pregnancy within the duration of the study or is less than 6 months postpartum, post-abortion, or post-lactation at the time of entry into the screening period • [3] Previous use of hormonal agents before the Screening visit: ≤24 weeks for GnRH agonists; ≤12 weeks for depot progestogens and danazol: ≤6 weeks for oral contraceptives • [4] Patients with history of any cancer (including breast cancer) and/or histological diagnosis of endometrial atypical hyperplasia at baseline (note: the combination of endometrial thickness<5 mm determined by transvaginal ultrasound and insufficient material for histological evaluation from the endometrial biopsy will be regarded as atrophic endometrium) • [5] Other clinically significant gynaecological condition causing abnormal uterine bleeding already known or identified on Screening such as severe adenomyosis or symptomatic uterine fibroids requiring treatment • [6] Subject has current or history of abnormal genital bleeding • [7] Presence of ovarian cyst of unknown etiology • [8] Cervical smear with pathological findings: class III or higher according to Papanicolaou, class IIp or higher according to the Munich Ill nomenclature or ASC-US or higher according to the Bethesda system • [9] Surgical treatment of endometriosis within 3 months prior to the screening visit • [10] Presence of chronic pain other than pain due to endometriosis • [11] Hepatic insufficiency • [12] History of, or complications of, thrombosis, embolism, or serious cardiac, respiratory (severe asthma not adequately controlled by treatment), renal, hematologic, endocrine diseases • [13] Uncontrolled or inadequately controlled hypertension at the time of screening with a resting supine systolic or diastolic blood pressure>180 mmHg or >95 mmHg, respectively • [14] Subject with hereditary porphyria • [15] Abnormal laboratory findings considered by the investigator as clinically significant • [16] Positive results for HBs-Ag, anti-HCV and HIV-1/HIV-2-antibodies • [17] […]

women with endometriosis [5] = conditions: 100 mg orally daily, three months, cited from earlier work
women with endometriosis [6] = conditions: 50 mg orally daily, 6 months, cited from earlier work
women with endometriosis [7] = conditions: 5 mg orally daily, 6 months, cited from earlier work
[8] = test system: women with laparoscopic diagnostic of endometriosis; conditions: cited from earlier work

## CN(C)c1ccc([C@H]2C[C@@]3(C)[C@@H](CC[C@]3(O)C#CCO)[C@@H]3CCC4=CC(=O)CCC4=C32)cc1 [RU 42698]
[1]
  affinity toward the human progesterone receptor: considerable affinity
[2]
  affinity toward the human glucocorticoid receptor: considerable affinity
[3]
  serum concentrations: in a similar range as those of the parent drug

## CC#C[C@]1(O)CC[C@H]2[C@@H]3CCC4=CC(=O)CCC4=C3[C@@H](c3ccc(N)cc3)C[C@@]21C [RU 42848]
[1]
  affinity toward the human progesterone receptor: considerable affinity
[2]
  affinity toward the human glucocorticoid receptor: considerable affinity
[3]
  serum concentrations: in a similar range as those of the parent drug

## CC#C[C@]1(O)CC[C@H]2[C@@H]3CCC4=CC(=O)CCC4=C3[C@@H](c3ccc(NC)cc3)C[C@@]21C [RU 42633]
[1]
  affinity toward the human progesterone receptor: considerable affinity
[2]
  affinity toward the human glucocorticoid receptor: considerable affinity
[3]
  serum concentrations: in a similar range as those of the parent drug

## CC#C[C@]1(O)CC[C@H]2[C@@H]3CCC4=CC(=O)CCC4=C3[C@@H](c3ccc(N(C)C)cc3)C[C@@]21C [mifepristone]
[4]; 2.5 mg (T1) vs 5 mg (T2) per day
  pain relief, 2.5 mg daily dose compared with 5 mg daily dose: more pronounced than the 5 mg group; also recorded: more effective than the 5 mg dose; also recorded: less pelvic pain than with a daily dose of 5 mg
[4]; 2.5 mg tablet every day as monotherapy, lesions in cesarean sections or ovarian endometriomas
  pain associated with extra-pelvic endometriosis: effective to reduce the pain associated with extra-pelvic endometriosis; also recorded: appropriate pain relief
[4]; 5 mg dose compared with 2.5 mg dose
  endometrial thickening: markedly greater endometrial thickening than the lower dose of 2.5 mg
[4]; T1, 2.5 mg mifepristone per day, 1 month of treatment
  EAP (VAS): 29.19
[4]; T1, 2.5 mg mifepristone per day, 2 months of treatment
  EAP (VAS): 24.61
[4]; T1, 2.5 mg mifepristone per day, 3 months of treatment
  EAP (VAS): 23.63
[4]; T1, 2.5 mg mifepristone per day, 4 months of treatment
  EAP (VAS): 22.31
[4]; T1, 2.5 mg mifepristone per day, month 0 (before treatment)
  EAP (VAS): 32.81
[4]; T2, 5 mg mifepristone per day, 1 month of treatment
  EAP (VAS): 29.30
[4]; T2, 5 mg mifepristone per day, 2 months of treatment
  EAP (VAS): 26.11
[4]; T2, 5 mg mifepristone per day, 3 months of treatment
  EAP (VAS): 24.58
[4]; T2, 5 mg mifepristone per day, 4 months of treatment
  EAP (VAS): 25.01
[4]; T2, 5 mg mifepristone per day, month 0 (before treatment)
  EAP (VAS): 32.81
[4]; daily dose of 2.5 mg alone, no analgesic rescue medication
  intensity of pain associated with endometriosis: significant reduction
Women with endometriosis [5]; six women
  amenorrhea: reported by all study participants
  pelvic pain: all women also reported improvement
Women with endometriosis [5]
  extent of endometriosis (follow-up laparoscopy): no significant change
Women with endometriosis [6]; all patients
  amenorrhea / hypoestrogenism: amenorrhea without hypoestrogenism
Women with endometriosis [6]; nine women
  pelvic pain and uterine cramping: improved in all patients
Women with endometriosis [6]
  regression of endometriosis (laparoscopic assessment, AFS score): 55%
Women with endometriosis [7]; seven women
  cyclic bleeding: ceased in all patients
  pelvic pain: improved in six of seven patients
Women with endometriosis [7]
  decrease of mean endometriosis scores: decreased by only %
[8]; 2.5 mg oral dose
  amenorrhea and clinical improvement, 2.5 mg group vs 5 and 10 mg groups: significantly lower percentages of amenorrhea and clinical improvement than the 5 and 10 mg groups
  use of analgesics (rescue therapy), 2.5 mg group vs 5 and 10 mg groups: significantly greater use of analgesics
[8]; 2.5, 5 and 10 mg oral doses, all treatment groups
  effectiveness against placebo: more effective than the placebo group
[8]; after 90 and 180 days of treatment
  clinical improvement, 5 mg vs 10 mg: no differences were observed
